ChEMBL document CHEMBL5380816, “Inclusion of Nitrofurantoin into the Realm of Cancer Chemotherapy via Biology-Oriented Synthesis and Drug Repurposing” (J Med Chem, 2023)
Calls of active or inactive are those of the source. No cut-off for these calls is given here.

Experiments:
[1] = Cytotoxicity in human WI-38 cells assessed as reduction in cell viability incubated for 72 hrs by MTT assay; type: toxicity, cell-based
[2] = Cytotoxicity in human WI-38 cells assessed as safe dose incubated for 72 hrs by MTT assay; type: toxicity, cell-based; conditions: read-out: EC100
Caco-2 [3] = assay: Anticancer activity against human Caco-2 cells incubated for 72 hrs by MTT assay; type: functional, cell-based; conditions: Caco-2, 72 h
[4] = Selectivity index, ratio of IC50 for human WI-38 cells to IC50 for human Caco-2 cells
MCF7 [5] = assay: Anticancer activity against human MCF7 cells incubated for 72 hrs by MTT assay; type: functional, cell-based; conditions: MCF7, 72 h
[6] = Selectivity index, ratio of IC50 for human WI-38 cells to IC50 for human MCF7 cells; type: toxicity; conditions: WI-38 cells versus MCF7 cells, read-out: Ratio IC50
HeLa [7] = assay: Anticancer activity against human HeLa cells incubated for 72 hrs by MTT assay; type: functional, cell-based
[8] = Selectivity index, ratio of IC50 for human WI-38 cells to IC50 for human HeLa cells; type: toxicity; conditions: WI-38 cells versus HeLa cells, read-out: Ratio IC50
HepG2 [9] = assay: Anticancer activity against human HepG2 cells incubated for 72 hrs by MTT assay; type: functional, cell-based; conditions: HepG2, 72 h
[10] = Selectivity index, ratio of IC50 for human WI-38 cells to IC50 for human HepG2 cells; type: toxicity; conditions: WI-38 cells versus HepG2 cells, read-out: Ratio IC50
MCF7 [11] = assay: Potency index, ratio of 5-fluorouracil IC50 to test compound IC50 for antiproliferative activity against human MCF7 cells; type: functional
HepG2 [12] = assay: Potency index, ratio of 5-fluorouracil IC50 to test compound IC50 for antiproliferative activity against human HepG2 cells; type: functional
HeLa [13] = assay: Induction of oxidative stress in human HeLa cells assessed as cell death by measuring redox alteration fluorescence incubated at 0.098 uM for 72 hrs in presence of dihydro dichlorofluorescein diacetate by DCFH-DA based flow cytometric analysis relative to control; type: functional
[14] = molecular target: T1, Tumour suppressor p53/oncoprotein Mdm2 (Homo sapiens, UniProt P04637+Q00987); assay: Inhibition of human recombinant MDM2/p53 interaction measured after 10 mins by ELISA method; type: protein assay
Target sequence in this assay (P04637 whole entry): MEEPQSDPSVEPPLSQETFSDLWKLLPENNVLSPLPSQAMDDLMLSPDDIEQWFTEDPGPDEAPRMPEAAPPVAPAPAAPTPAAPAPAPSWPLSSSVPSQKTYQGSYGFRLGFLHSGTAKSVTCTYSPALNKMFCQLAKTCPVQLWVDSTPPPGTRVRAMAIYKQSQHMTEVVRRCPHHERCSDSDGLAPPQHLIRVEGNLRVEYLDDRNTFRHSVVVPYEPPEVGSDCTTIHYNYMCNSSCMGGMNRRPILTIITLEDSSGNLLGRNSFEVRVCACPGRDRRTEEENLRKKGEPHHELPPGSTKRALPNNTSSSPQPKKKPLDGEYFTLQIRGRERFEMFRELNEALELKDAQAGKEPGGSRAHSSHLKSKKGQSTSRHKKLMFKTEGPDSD
Target sequence in this assay (Q00987 whole entry): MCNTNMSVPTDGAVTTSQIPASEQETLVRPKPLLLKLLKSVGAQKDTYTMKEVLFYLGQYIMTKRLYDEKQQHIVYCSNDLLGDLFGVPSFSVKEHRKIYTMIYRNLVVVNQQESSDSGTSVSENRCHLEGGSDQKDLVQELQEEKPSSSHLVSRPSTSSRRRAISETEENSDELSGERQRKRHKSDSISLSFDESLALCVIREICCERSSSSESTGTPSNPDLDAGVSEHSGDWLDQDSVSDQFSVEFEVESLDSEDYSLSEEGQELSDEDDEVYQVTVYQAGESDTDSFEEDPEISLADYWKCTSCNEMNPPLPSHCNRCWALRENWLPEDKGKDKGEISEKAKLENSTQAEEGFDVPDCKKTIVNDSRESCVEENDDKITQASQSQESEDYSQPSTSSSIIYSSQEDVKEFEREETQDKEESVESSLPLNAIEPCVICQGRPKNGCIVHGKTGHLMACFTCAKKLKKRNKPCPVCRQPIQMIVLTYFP

[15] = molecular target: T1, Tumour suppressor p53/oncoprotein Mdm2; assay: Potency index, ratio of nitrofurantoin IC50 to compound IC50 for inhibition of human recombinant MDM2/p53 interaction; type: protein assay
Target sequence in this assay (P04637 whole entry, looked up): as the sequence (P04637 whole entry) above
Target sequence in this assay (Q00987 whole entry, looked up): as the sequence (Q00987 whole entry) above

Caco-2 [16] = assay: Induction of apoptosis in human Caco-2 cells assessed as increase in Bax expression level relative to nitrofurantoin; type: functional
MCF7 [17] = assay: Induction of apoptosis in human MCF7 cells assessed as increase in Bax expression level relative to nitrofurantoin; type: functional
HepG2 [18] = assay: Induction of apoptosis in human HepG2 cells assessed as increase in Bax expression level relative to nitrofurantoin; type: functional
HeLa [19] = assay: Induction of apoptosis in human HeLa cells assessed as increase in Bax expression level relative to nitrofurantoin; type: functional
Caco-2 [20] = assay: Induction of apoptosis in human Caco-2 cells assessed as increase in Bax expression level relative to 5-fluorouracil; type: functional
MCF7 [21] = assay: Induction of apoptosis in human MCF7 cells assessed as increase in Bax expression level relative to 5-fluorouracil; type: functional
HepG2 [22] = assay: Induction of apoptosis in human HepG2 cells assessed as increase in Bax expression level relative to 5-fluorouracil; type: functional
HeLa [23] = assay: Induction of apoptosis in human HeLa cells assessed as increase in Bax expression level relative to 5-fluorouracil; type: functional
HeLa [24] = assay: Induction of apoptosis in human HeLa cells assessed as increase in Bax expression level relative to control; type: functional
HepG2 [25] = assay: Induction of apoptosis in human HepG2 cells assessed as increase in Bax expression level relative to control; type: functional
Caco-2 [26] = assay: Induction of apoptosis in human Caco-2 cells assessed as decrease in Bcl-2 expression level incubated for 72 hrs relative to nitrofurantoin; type: functional; set-up: scale not given: the % may be the effect or the level left
MCF7 [27] = assay: Induction of apoptosis in human MCF7 cells assessed as decrease in Bcl-2 expression level incubated for 72 hrs relative to nitrofurantoin; type: functional; set-up: scale not given: the % may be the effect or the level left
HepG2 [28] = assay: Induction of apoptosis in human HepG2 cells assessed as decrease in Bcl-2 expression level incubated for 72 hrs relative to nitrofurantoin; type: functional; set-up: scale not given: the % may be the effect or the level left
HeLa [29] = assay: Induction of apoptosis in human HeLa cells assessed as decrease in Bcl-2 expression level incubated for 72 hrs relative to nitrofurantoin; type: functional; set-up: scale not given: the % may be the effect or the level left
Caco-2 [30] = assay: Induction of apoptosis in human Caco-2 cells assessed as decrease in Bcl-2 expression level incubated for 72 hrs relative to 5-fluorouracil; type: functional; set-up: scale not given: the % may be the effect or the level left
MCF7 [31] = assay: Induction of apoptosis in human MCF7 cells assessed as decrease in Bcl-2 expression level incubated for 72 hrs relative to 5-fluorouracil; type: functional; set-up: scale not given: the % may be the effect or the level left
HepG2 [32] = assay: Induction of apoptosis in human HepG2 cells assessed as decrease in Bcl-2 expression level incubated for 72 hrs relative to 5-fluorouracil; type: functional; set-up: scale not given: the % may be the effect or the level left
HeLa [33] = assay: Induction of apoptosis in human HeLa cells assessed as decrease in Bcl-2 expression level incubated for 72 hrs relative to 5-fluorouracil; type: functional; set-up: scale not given: the % may be the effect or the level left
Caco-2 [34] = assay: Induction of apoptosis in human Caco-2 cells assessed as ratio of gene expression activity in pro apoptotic Bax to anti apoptotic Bcl-2; type: functional
MCF7 [35] = assay: Induction of apoptosis in human MCF7 cells assessed as ratio of gene expression activity in pro apoptotic Bax to anti apoptotic Bcl-2; type: functional
HeLa [36] = assay: Induction of apoptosis in human HeLa cells assessed as ratio of gene expression activity in pro apoptotic Bax to anti apoptotic Bcl-2; type: functional
HepG2 [37] = assay: Induction of apoptosis in human HepG2 cells assessed as ratio of gene expression activity in pro apoptotic Bax to anti apoptotic Bcl-2; type: functional
MCF7 [38] = assay: Antitumor activity against human MCF7 cells xenografted in immunocompromised BALB/c mouse model assessed as tumor size reduction administered at 50 mg/kg, ip for 21 days; type: functional, organism-based; conditions: time 21.0 day
MCF7 [39] = assay: Antitumor activity against human MCF7 cells xenografted in immunocompromised BALB/c mouse model assessed as decrease in tumor maas administered at 50 mg/kg, ip for 21 days relative to control; type: functional; set-up: scale not given: the % may be the effect or the level left; conditions: time 21 day
MCF7 [40] = assay: Anticancer activity against human MCF7 cells assessed as losing contact with neighbouring cells incubated at 0.098uM for 72 hrs by phase contrast inverted microscopic analysis; type: functional, cell-based
HeLa [41] = assay: Induction of apoptosis in human HeLa cells assessed as necrotic cells incubated at 0.098 uM for 72 hrs by annexin V-FITC based propidium iodide dual staining assay (reference value: 0%); type: functional
HepG2 [42] = assay: Induction of apoptosis in human HepG2 cells assessed as necrotic cells incubated at 0.097 uM for 72 hrs by annexin V-FITC based propidium iodide dual staining assay (reference value: 0.33%); type: functional
MCF7 [43] = assay: Induction of apoptosis in human MCF7 cells assessed as total apoptotic cells incubated at 0.097 uM for 72 hrs by annexin V-FITC based propidium iodide dual staining assay (reference value: 0.04 %); type: functional
MCF7 [44] = assay: Induction of apoptosis in human MCF7 cells assessed as caspase3/7 activation at 0.097 uM using caspase-glo 3/7 as substrate relative to control; type: functional

SMILES: C#CCN1C(=O)CN(/N=C/c2ccc([N+](=O)[O-])o2)C1=O
- IC50 at 72 h [1]: 306 nM
- MNTC at 72 h [2]: 110 nM
- IC50 (Caco-2 [3]): 99 nM
- Ratio IC50 [4]: 3.13
- IC50 (MCF7 [5]): 111 nM
- selectivity ratio [6]: 2.79
- IC50 (HeLa [7]): 265 nM
- selectivity ratio [8]: 1.16
- IC50 (HepG2 [9]): 89 nM
- selectivity ratio [10]: 3.46
- Ratio IC50 (MCF7 [11]): 1.2
- Ratio IC50 (HepG2 [12]): 1.2
- Activity (HeLa [13]): 30.75%
- IC50 [14]: 590 nM
- Ratio IC50 [15]: 2.7
- Activity (Caco-2 [16]): 70%
- Activity (MCF7 [17]): 70%
- Activity (HepG2 [18]): 70%
- Activity (HeLa [19]): 70%
- Activity (Caco-2 [20]): 70%
- Activity (MCF7 [21]): 70%
- Activity (HepG2 [22]): 70%
- Activity (HeLa [23]): 70%
- Activity (HeLa [24]): 300%
- Activity (HepG2 [25]): 300%
- Activity (Caco-2 [26]): 30%
- Activity (MCF7 [27]): 30%
- Activity (HepG2 [28]): 30%
- Activity (HeLa [29]): 30%
- Activity (Caco-2 [30]): 30%
- Activity (MCF7 [31]): 30%
- Activity (HepG2 [32]): 30%
- Activity (HeLa [33]): 30%
- Ratio (Caco-2 [34]): 5.278
- Ratio (MCF7 [35]): 4.453
- Ratio (HeLa [36]): 3.004
- Ratio (HepG2 [37]): 11.74
- Activity (MCF7 [38]): Active
- Activity (MCF7 [39]): ~65%

SMILES: O=c1[nH]cc(F)c(=O)[nH]1 [FLUOROURACIL]
- IC50 at 72 h [1]: 192 nM
- MNTC at 72 h [2]: 17 nM
- IC50 (Caco-2 [3]): 266 nM
- Ratio IC50 [4]: 0.76
- IC50 (MCF7 [5]): 235 nM
- selectivity ratio [6]: 0.865
- IC50 (HeLa [7]): 199 nM
- selectivity ratio [8]: 1.02
- IC50 (HepG2 [9]): 178 nM
- selectivity ratio [10]: 1.13
- Ratio (Caco-2 [34]): 1.187
- Ratio (MCF7 [35]): 1.246
- Ratio (HeLa [36]): 1.257
- Ratio (HepG2 [37]): 1.247
- Activity (MCF7 [38]): Active
- Activity (MCF7 [39]): ~65%

SMILES: O=C(CN1C(=O)CN(/N=C/c2ccc([N+](=O)[O-])o2)C1=O)c1ccc(Cl)cc1
- IC50 at 72 h [1]: 251 nM
- MNTC at 72 h [2]: 98 nM
- IC50 (Caco-2 [3]): 134 nM
- Ratio IC50 [4]: 1.87
- IC50 (MCF7 [5]): 117 nM
- selectivity ratio [6]: 2.14
- IC50 (HeLa [7]): 62 nM
- selectivity ratio [8]: 4.04
- IC50 (HepG2 [9]): 110 nM
- selectivity ratio [10]: 2.29
- Ratio IC50 (MCF7 [11]): 1.2
- Ratio IC50 (HepG2 [12]): 1.6
- Activity (MCF7 [40]): Active
- Activity (HeLa [41]): 1.16%
- IC50 [14]: 670 nM
- Ratio IC50 [15]: 2.4
- Activity (Caco-2 [16]): 70%
- Activity (MCF7 [17]): 70%
- Activity (HepG2 [18]): 70%
- Activity (HeLa [19]): 70%
- Activity (Caco-2 [20]): 70%
- Activity (MCF7 [21]): 70%
- Activity (HepG2 [22]): 70%
- Activity (HeLa [23]): 70%
- Activity (HeLa [24]): 300%
- Activity (HepG2 [25]): 300%
- Activity (Caco-2 [26]): 30%
- Activity (MCF7 [27]): 30%
- Activity (HepG2 [28]): 30%
- Activity (HeLa [29]): 30%
- Activity (Caco-2 [30]): 30%
- Activity (MCF7 [31]): 30%
- Activity (HepG2 [32]): 30%
- Activity (HeLa [33]): 30%
- Ratio (Caco-2 [34]): 3.396
- Ratio (MCF7 [35]): 5.104
- Ratio (HeLa [36]): 11.09
- Ratio (HepG2 [37]): 4.215

SMILES: NS(=O)(=O)c1ccc(-n2cc(CN3C(=O)CN(/N=C/c4ccc([N+](=O)[O-])o4)C3=O)nn2)cc1
- IC50 at 72 h [1]: 249 nM
- MNTC at 72 h [2]: 97 nM
- IC50 (Caco-2 [3]): 80 nM
- Ratio IC50 [4]: 3.14
- IC50 (MCF7 [5]): 74 nM
- selectivity ratio [6]: 3.36
- IC50 (HeLa [7]): 81 nM
- selectivity ratio [8]: 3.08
- IC50 (HepG2 [9]): 309 nM
- selectivity ratio [10]: 0.807
- Ratio IC50 (MCF7 [11]): 1.2
- Activity (HepG2 [42]): 0%
- Activity (MCF7 [43]): 64.08%
- IC50 [14]: 410 nM
- Ratio IC50 [15]: 3.6
- Activity (Caco-2 [16]): 70%
- Activity (MCF7 [17]): 70%
- Activity (HepG2 [18]): 70%
- Activity (HeLa [19]): 70%
- Activity (Caco-2 [20]): 70%
- Activity (MCF7 [21]): 70%
- Activity (HepG2 [22]): 70%
- Activity (HeLa [23]): 70%
- Activity (Caco-2 [26]): 30%
- Activity (MCF7 [27]): 30%
- Activity (HepG2 [28]): 30%
- Activity (HeLa [29]): 30%
- Activity (Caco-2 [30]): 30%
- Activity (MCF7 [31]): 30%
- Activity (HepG2 [32]): 30%
- Activity (HeLa [33]): 30%
- Ratio (Caco-2 [34]): 7.328
- Ratio (MCF7 [35]): 10.4
- Ratio (HeLa [36]): 6.36
- Ratio (HepG2 [37]): 2.326
- Activity (MCF7 [44]): 58%
